Laboratory results from EP0188647B1, “Acylated derivatives of cytidine-diphosphate-choline, process for their preparation and their therapeutic use” (NEOPHARMED S.p.A., priority 1985, dated 1986).

[1] = control experiment, oral, 20 µmoles/kg, after 30 minutes, intestinal level

Text: The required data refer to the distribution of radioactivity in the animal and also to structural identity of the radioactive molecular species present in some of the more significant biological samples (liver, brain, faeces, gastric and intestinal contents).
The scheme of extraction consents the recovery of three different classes of labelled metabolites: • 1) Hydrosoluble metabolites, subsequently analysed by HPLC. • 2) Metabolites with high molecular weights, proteins and nucleic acids, recovered by thermal denaturation in a hydroalcoholic environment. • 3) Lipids, subsequently purified by chromatography on silica.

SMILES | double labelled CDP-choline administered found at intestinal level [1] [%] | radioactivity present in the dose found at intestinal level [1] | time of maximum uptake in the plasmatic component and in the organs (rat, in vivo, po) [h] | total radioactivity, of that present in the administered dose (rat, in vivo, po) [%]
C[N+](C)(C)CCOP(=O)(O)OP(=O)([O-])OC[C@H]1O[C@@H](n2ccc(N)nc2=O)[C@H](O)[C@@H]1O [CDP-choline, Cytidine-diphosphate-choline] | 0.2 | not more than 5% |  | 
CCCCC(=O)Nc1ccn([C@@H]2O[C@H](COP(=O)(O)OP(=O)([O-])OCC[N+](C)(C)C)[C@@H](OC(=O)CCCC)[C@H]2OC(=O)CCCC)c(=O)n1 [trivaleryl-CDP-choline, N4-valeryl-2',3'-di-O-valeryl-CDP-choline] |  |  | 5 | 30
